Legend:
[1] = target: T1, Prostaglandin G/H synthase 1 (Ovis aries, UniProt P05979); assay: Inhibition of sheep COX1 measured by oxygen consumption
T1 sequence (P05979 whole entry): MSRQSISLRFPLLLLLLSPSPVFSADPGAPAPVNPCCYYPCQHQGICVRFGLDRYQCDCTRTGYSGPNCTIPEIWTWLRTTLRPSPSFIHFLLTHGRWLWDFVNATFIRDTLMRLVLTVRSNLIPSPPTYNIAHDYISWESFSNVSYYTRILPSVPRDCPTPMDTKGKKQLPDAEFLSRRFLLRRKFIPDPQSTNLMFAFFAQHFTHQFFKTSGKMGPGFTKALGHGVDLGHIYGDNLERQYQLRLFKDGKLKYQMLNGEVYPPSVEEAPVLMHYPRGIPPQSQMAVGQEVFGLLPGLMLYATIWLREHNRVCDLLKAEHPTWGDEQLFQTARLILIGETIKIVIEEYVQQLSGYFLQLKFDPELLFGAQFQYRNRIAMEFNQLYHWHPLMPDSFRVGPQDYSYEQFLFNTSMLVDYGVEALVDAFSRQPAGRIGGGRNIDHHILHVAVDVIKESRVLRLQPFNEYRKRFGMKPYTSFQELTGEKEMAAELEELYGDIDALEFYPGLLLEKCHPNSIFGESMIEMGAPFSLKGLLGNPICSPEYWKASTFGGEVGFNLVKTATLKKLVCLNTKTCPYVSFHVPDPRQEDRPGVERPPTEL

[2] = target: T2, Prostaglandin G/H synthase 1 (Ovis aries) (UniProt P05979); assay: Inhibition of sheep COX1 measured by oxygen consumption at 100 uM
T2 sequence (whole entry): T1 sequence (P05979 whole entry)

| Structure (SMILES) | IC50 [1] | other results |
| --- | --- | --- |
| CC(C)C(=O)c1c(O)cc(O)cc1O[C@@H]1O[C@H](CO)[C@@H](O)[C@H](O)[C@H]1O | 23.7 µM |  |
| Oc1cc(O)cc(O)c1 [PHLOROGLUCINOL] |  | AC50 [1]: Active |
| CC(C)C(=O)c1c(O)cc(O)cc1O [PHLOROISOBUTYROPHENONE] | 3.8 µM |  |
| CCC(C)C(=O)c1c(O)cc(O)cc1O[C@@H]1O[C@H](CO)[C@@H](O)[C@H](O)[C@H]1O (stereo partly specified) | 131 µM |  |
| CC(C)CC(=O)c1c(O)cc(O)cc1O[C@@H]1O[C@H](CO)[C@@H](O)[C@H](O)[C@H]1O |  | inhibition [2]: 12% |
| CC(C)C(=O)c1c(O)cc(O[C@@H]2O[C@H](CO)[C@@H](O)[C@H](O)[C@H]2O)cc1O | 58.7 µM |  |

Reference: ChEMBL document CHEMBL1151272, “Anti-inflammatory acylphloroglucinol derivatives from Hops (Humulus lupulus)” (J Nat Prod, 2005)
